In ChEMBL document CHEMBL1909046, “DrugMatrix in vitro pharmacology data”:

What was measured:
[1] = molecular target: Mitogen-activated protein kinase 14 (Homo sapiens, UniProt Q16539); set-up: species or system Escherichia coli;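 also: inhibition of p38alpha enzyme activity in a biochemical kinase assay, with myelin basic protein serving as substrate; in other assays of this panel Not Active means under 50% inhibition at 10 µM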
[2] = molecular target: Epidermal growth factor receptor (Homo sapiens, UniProt P00533); assay: DRUGMATRIX: Protein Tyrosine Kinase, EGF Receptor enzyme inhibition (substrate: Poly(Glu:Tyr)); type: cell-based, Insect cells; details: insect cells; Not Active = under 50% inhibition at 10 µM
[3] = DRUGMATRIX: Phosphodiesterase PDE4 enzyme inhibition (substrate: [3H]cAMP + cAMP); details: u-937; Not Active = under 50% inhibition at 10 µM
[4] = molecular target: T1, C-C chemokine receptor type 4 (Homo sapiens, UniProt P51679); type: cell membranes, Membrane; details: chem-1; also: in other assays of this panel Not Active means under 50% inhibition at 10 µM
T1 sequence (P51679 whole entry): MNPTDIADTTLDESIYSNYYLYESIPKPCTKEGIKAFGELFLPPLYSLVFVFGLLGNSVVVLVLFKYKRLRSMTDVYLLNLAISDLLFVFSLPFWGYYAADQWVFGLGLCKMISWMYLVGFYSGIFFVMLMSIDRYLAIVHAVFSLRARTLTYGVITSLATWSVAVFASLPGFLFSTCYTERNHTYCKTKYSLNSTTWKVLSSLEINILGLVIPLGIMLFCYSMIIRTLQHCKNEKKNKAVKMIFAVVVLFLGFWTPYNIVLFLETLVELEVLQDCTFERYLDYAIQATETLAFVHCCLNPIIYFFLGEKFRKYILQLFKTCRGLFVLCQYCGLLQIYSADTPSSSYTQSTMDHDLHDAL

B2 bradykinin receptor = molecular target: T2, B2 bradykinin receptor (Homo sapiens, UniProt P30411); type: cell membranes, Membrane; details: chem-1; also: in other assays of this panel Not Active means under 50% inhibition at 10 µM
T2 sequence (P30411 whole entry): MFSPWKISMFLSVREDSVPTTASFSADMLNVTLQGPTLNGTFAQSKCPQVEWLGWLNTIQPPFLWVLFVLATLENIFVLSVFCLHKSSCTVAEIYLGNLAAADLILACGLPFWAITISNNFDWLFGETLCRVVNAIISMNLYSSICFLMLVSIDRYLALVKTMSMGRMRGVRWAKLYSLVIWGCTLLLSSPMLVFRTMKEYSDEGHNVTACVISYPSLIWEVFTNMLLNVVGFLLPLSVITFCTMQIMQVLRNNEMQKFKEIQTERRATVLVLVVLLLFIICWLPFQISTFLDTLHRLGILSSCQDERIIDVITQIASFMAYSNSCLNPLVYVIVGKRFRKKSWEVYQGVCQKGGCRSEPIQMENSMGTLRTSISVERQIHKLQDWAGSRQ

[5] = DRUGMATRIX: Platelet-Derived Growth Factor (PDGF) radioligand binding (ligand: [125I] PDGF); type: cell-based; details: nih3t3; Not Active = under 50% inhibition at 10 µM
[6] = DRUGMATRIX: Glutamate, AMPA radioligand binding (ligand: [3H] AMPA); type: cell membranes, Rattus norvegicus, Wistar, Cerebral cortex, Membrane; details: Not Active = under 50% inhibition at 10 µM
[7] = DRUGMATRIX: Nicotinic Acetylcholine radioligand binding (ligand: [125I] Epibatidine); type: cell membranes, Membrane; details: imr-32; Not Active = under 50% inhibition at 10 µM

Chain of Mitogen-activated protein kinase 14 (Q16539 whole entry): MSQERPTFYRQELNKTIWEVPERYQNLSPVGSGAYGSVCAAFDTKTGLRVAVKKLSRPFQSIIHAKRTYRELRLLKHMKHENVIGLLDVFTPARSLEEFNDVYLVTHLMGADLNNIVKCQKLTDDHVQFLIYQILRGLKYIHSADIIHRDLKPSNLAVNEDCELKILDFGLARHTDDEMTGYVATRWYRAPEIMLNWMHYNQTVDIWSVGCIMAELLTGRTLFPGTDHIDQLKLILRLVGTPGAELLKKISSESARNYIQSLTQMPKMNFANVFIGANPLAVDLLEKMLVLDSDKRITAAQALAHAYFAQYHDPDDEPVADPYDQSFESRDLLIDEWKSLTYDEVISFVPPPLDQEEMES
Chain of Epidermal growth factor receptor (P00533 whole entry): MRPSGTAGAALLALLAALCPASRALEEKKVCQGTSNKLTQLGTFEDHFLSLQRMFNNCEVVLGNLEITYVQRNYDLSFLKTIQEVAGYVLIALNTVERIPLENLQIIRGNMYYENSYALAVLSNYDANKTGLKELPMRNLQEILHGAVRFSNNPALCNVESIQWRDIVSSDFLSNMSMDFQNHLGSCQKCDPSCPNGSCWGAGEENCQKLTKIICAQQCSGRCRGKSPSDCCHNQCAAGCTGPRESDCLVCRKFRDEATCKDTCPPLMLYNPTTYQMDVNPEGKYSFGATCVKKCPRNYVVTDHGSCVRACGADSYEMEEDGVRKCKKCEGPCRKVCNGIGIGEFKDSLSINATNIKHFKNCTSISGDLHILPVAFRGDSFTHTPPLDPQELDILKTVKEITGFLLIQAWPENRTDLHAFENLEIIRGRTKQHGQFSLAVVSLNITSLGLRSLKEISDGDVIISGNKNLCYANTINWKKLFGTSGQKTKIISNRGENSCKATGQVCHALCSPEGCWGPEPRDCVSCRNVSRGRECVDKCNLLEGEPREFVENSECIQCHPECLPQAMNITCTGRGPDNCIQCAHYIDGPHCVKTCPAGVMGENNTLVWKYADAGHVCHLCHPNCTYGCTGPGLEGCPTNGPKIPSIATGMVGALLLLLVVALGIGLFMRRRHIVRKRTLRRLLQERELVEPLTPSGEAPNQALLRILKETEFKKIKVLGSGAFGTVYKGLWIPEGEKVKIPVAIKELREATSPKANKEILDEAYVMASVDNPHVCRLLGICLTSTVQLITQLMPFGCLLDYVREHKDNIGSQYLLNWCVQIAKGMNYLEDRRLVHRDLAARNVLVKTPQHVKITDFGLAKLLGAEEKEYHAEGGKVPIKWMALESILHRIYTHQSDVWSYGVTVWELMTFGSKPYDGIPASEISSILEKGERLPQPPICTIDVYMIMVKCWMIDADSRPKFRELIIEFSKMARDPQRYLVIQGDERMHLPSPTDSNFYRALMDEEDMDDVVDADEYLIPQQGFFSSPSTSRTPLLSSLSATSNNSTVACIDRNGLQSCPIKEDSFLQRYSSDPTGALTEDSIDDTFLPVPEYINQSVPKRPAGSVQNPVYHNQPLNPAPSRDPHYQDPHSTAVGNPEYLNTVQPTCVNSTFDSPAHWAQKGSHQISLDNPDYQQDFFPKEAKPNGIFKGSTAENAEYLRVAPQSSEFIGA

O=C(Oc1ccccc1C(=O)O)c1ccccc1O [SALSALATE]
Not Active: IC50 [1] | IC50 [2] | IC50 [3] | Ki [3] | IC50 [4] | IC50 (B2 bradykinin receptor) | IC50 [5] | Ki [5] | IC50 [6] | Ki [6] | IC50 [7] | Ki [7]

O=C(O)c1cn(-c2ccc(F)cc2)c2cc(N3CCNCC3)c(F)cc2c1=O [SARAFLOXACIN]
Not Active: IC50 [1] | IC50 [2] | IC50 [3] | Ki [3] | IC50 [4] | IC50 (B2 bradykinin receptor) | IC50 [5] | Ki [5] | IC50 [6] | Ki [6] | IC50 [7] | Ki [7]

CC(C)NCC(O)c1ccc(NS(C)(=O)=O)cc1 (stereo unspecified) [SOTALOL]
Not Active: IC50 [1] | IC50 [2] | IC50 [3] | Ki [3] | IC50 [4] | IC50 (B2 bradykinin receptor) | IC50 [5] | Ki [5] | IC50 [6] | Ki [6] | IC50 [7] | Ki [7]

O.O.O.O.O.O.[Cl-].[Cl-].[Sr+2] [STRONTIUM CHLORIDE HEXAHYDRATE]
Not Active: IC50 [1] | IC50 [2] | IC50 [3] | Ki [3] | IC50 [4] | IC50 (B2 bradykinin receptor) | IC50 [5] | Ki [5] | IC50 [6] | Ki [6] | IC50 [7] | Ki [7]

O=C1C(CC[S+]([O-])c2ccccc2)C(=O)N(c2ccccc2)N1c1ccccc1 (stereo unspecified) [SULFINPYRAZONE]
Not Active: IC50 [1] | IC50 [2] | IC50 [3] | Ki [3] | IC50 [4] | IC50 (B2 bradykinin receptor) | IC50 [5] | Ki [5] | IC50 [6] | Ki [6] | IC50 [7] | Ki [7]

NC(=O)N1C(=O)/C(=C(\O)c2cccs2)c2cc(Cl)ccc21 [TENIDAP]
Not Active: IC50 [1] | IC50 [2] | IC50 [3] | Ki [3] | IC50 [4] | IC50 (B2 bradykinin receptor) | IC50 [5] | Ki [5] | IC50 [6] | Ki [6] | IC50 [7] | Ki [7]

COc1cc2nc(N3CCN(C(=O)C4CCCO4)CC3)nc(N)c2cc1OC (stereo unspecified) [TERAZOSIN]
Not Active: IC50 [1] | IC50 [2] | IC50 [3] | Ki [3] | IC50 [4] | IC50 (B2 bradykinin receptor) | IC50 [5] | Ki [5] | IC50 [6] | Ki [6] | IC50 [7] | Ki [7]

CN(C/C=C/C#CC(C)(C)C)Cc1cccc2ccccc12 [TERBINAFINE]
Not Active: IC50 [1] | IC50 [2] | IC50 [3] | Ki [3] | IC50 [4] | IC50 (B2 bradykinin receptor) | IC50 [5] | Ki [5] | IC50 [6] | Ki [6] | IC50 [7] | Ki [7]

CCCCNc1ccc(C(=O)OCCN(C)C)cc1 [TETRACAINE]
Not Active: IC50 [1] | IC50 [2] | IC50 [3] | Ki [3] | IC50 [4] | IC50 (B2 bradykinin receptor) | IC50 [5] | Ki [5] | IC50 [6] | Ki [6] | IC50 [7] | Ki [7]

Cn1c(=O)c2nc[nH]c2n(C)c1=O.O [THEOPHYLLINE]
Not Active: IC50 [1] | IC50 [2] | IC50 [3] | Ki [3] | IC50 [4] | IC50 (B2 bradykinin receptor) | IC50 [5] | Ki [5] | IC50 [6] | Ki [6] | IC50 [7] | Ki [7]

CS(=O)(=O)c1ccc([C@@H](O)[C@@H](CO)NC(=O)C(Cl)Cl)cc1 [THIAMPHENICOL]
Not Active: IC50 [1] | IC50 [2] | IC50 [3] | Ki [3] | IC50 [4] | IC50 (B2 bradykinin receptor) | IC50 [5] | Ki [5] | IC50 [6] | Ki [6] | IC50 [7] | Ki [7]

CCN(CC)CCNC(=O)c1cc(S(C)(=O)=O)ccc1OC [TIAPRIDE]
Not Active: IC50 [1] | IC50 [2] | IC50 [3] | Ki [3] | IC50 [4] | IC50 (B2 bradykinin receptor) | IC50 [5] | Ki [5] | IC50 [6] | Ki [6] | IC50 [7] | Ki [7]

Clc1ccccc1CN1CCc2sccc2C1 [TICLOPIDINE]
Not Active: IC50 [1] | IC50 [2] | IC50 [3] | Ki [3] | IC50 [4] | IC50 (B2 bradykinin receptor) | IC50 [5] | Ki [5] | IC50 [6] | Ki [6] | IC50 [7] | Ki [7]
